The source made the active and inactive calls. The rule behind the calls is not given here.
Key:
SARS-CoV-2 [1] = assay: (§1) Antiviral activity against SARS CoV-2 Wuhan infected in African green monkey Vero E6 cells assessed as inhibition of viral replication pretreated for 15 mins followed by compound removal and induction of viral infection for 1 hr and subsequent removal of inoculum and further addition of media containing compound measured after 24 hrs by cell-based ELISA; format: functional, organism-based; conditions: for IC50: Severe acute respiratory syndrome coronavirus 2, Wuhan, Vero C1008; for inhibition: Severe acute respiratory syndrome coronavirus 2, time 24.25 hrs
Vero C1008 [2] = assay: (§2) Cytotoxicity against African green monkey Vero E6 cells assessed as cell viability at 5 uM incubated for 48 hrs by MTT assay; format: toxicity, cell-based; conditions: chlorocebus sabaeus, vero c1008, 48 h, 5 µM
[3] = target: T1, Voltage-gated inwardly rectifying potassium channel KCNH2 (Homo sapiens, UniProt Q12809); assay: Inhibition of hERG extracted from membrane (unknown origin) incubated for 4 hrs by fluorescence polarization assay; format: toxicity, cell membranes
[4] = Lipophilicity, LogD of compound in sodium phosphate buffer/n-octanol incubated for 3 hrs by LC-UV analysis; format: physicochemical
[5] = Stability in human plasma assessed as half life at 2 uM measured up to 120 mins by LC-MS/MS analysis; format: ADME, cell-free
[6] = Stability in mouse plasma assessed as half life at 2 uM measured up to 120 mins by LC-MS/MS analysis; format: ADME, cell-free
[7] = Stability in human plasma assessed as compound remaining at 2 uM measured after 60 mins by LC-MS/MS analysis; format: ADME, cell-free; conditions: read-out: Stability
[8] = Stability in mouse plasma assessed as compound remaining at 2 uM measured after 60 mins by LC-MS/MS analysis; format: ADME, cell-free; conditions: read-out: Stability
[9] = Microsomal stability in human liver microsomes assessed as half life at 100 uM preincubated for 15 mins followed by NADPH addition measured up to 60 mins by LC-MS/MS analysis; format: ADME, Microsome; conditions: time < 75 min
[10] = Microsomal stability in mouse liver microsomes assessed as half life at 100 uM preincubated for 15 mins followed by NADPH addition measured up to 60 mins by LC-MS/MS analysis; format: ADME, Microsome; conditions: time < 75 min
[11] = Microsomal stability in human liver microsomes assessed as compound remaining at 100 uM preincubated for 15 mins followed by NADPH addition measured after 60 mins by LC-MS/MS analysis; format: ADME, Microsome; conditions: time 75 min, read-out: Stability
[12] = Microsomal stability in mouse liver microsomes assessed as compound remaining at 100 uM preincubated for 15 mins followed by NADPH addition measured after 60 mins by LC-MS/MS analysis; format: ADME, Microsome; conditions: time 75 min, read-out: Stability
[13] = Microsomal stability in human liver microsomes assessed as intrinsic clearance measured per mg protein at 100 uM preincubated for 15 mins followed by NADPH addition measured up to 60 mins by LC-MS/MS analysis; format: ADME, Microsome; conditions: time < 75 min, read-out: CLH
[14] = Microsomal stability in mouse liver microsomes assessed as intrinsic clearance measured per mg protein at 100 uM preincubated for 15 mins followed by NADPH addition measured up to 60 mins by LC-MS/MS analysis; format: ADME, Microsome; conditions: time < 75 min, read-out: CLH
SARS-CoV-2 [15] = assay: Potency index, ratio of Arbidol IC50 to test compound IC50 for antiviral activity against SARS CoV-2 Wuhan infected in African green monkey Vero E6 cells assessed as inhibition of viral replication pretreated for 15 mins followed by compound removal and induction of viral infection for 1 hr and subsequent removal of inoculum and further addition of media containing compound measured after 24 hrs …; format: functional, Severe acute respiratory syndrome coronavirus 2; conditions: time 24.25 hrs
[16] = target: T1, Voltage-gated inwardly rectifying potassium channel KCNH2; assay: Inhibition of hERG; format: toxicity
SARS-CoV-2 [17] = assay: as §1, with “virus inactivation at 5 uM” for “inhibition of viral replication”, “48” for “24”, “RT-qPCR analysis relative to control” for “cell-based ELISA”; format: functional, Severe acute respiratory syndrome coronavirus 2; conditions: time 48.25 hrs
SARS-CoV-2 [18] = assay: Antiviral activity against SARS CoV-2 Wuhan infected in African green monkey Vero E6 cells assessed as decrease in spike protein expression at 0.5 uM incubated for 48 hrs by immunofluorescence based analysis; format: functional, organism-based; conditions: Severe acute respiratory syndrome coronavirus 2
SARS-CoV-2 [19] = assay: Antiviral activity against SARS CoV-2 Wuhan infected in African green monkey Vero E6 cells assessed as decrease in viral particles at 0.5 uM incubated for 48 hrs by confocal microscopy; format: functional, organism-based; conditions: Severe acute respiratory syndrome coronavirus 2
SARS-CoV-2 [20] = assay: Antiviral activity against SARS CoV-2 Wuhan infected in African green monkey Vero E6 cells assessed as decrease in green fluorescence at 0.5 uM incubated for 48 hrs by confocal microscopy; format: functional, organism-based; conditions: Severe acute respiratory syndrome coronavirus 2
[21] = Half life in female C57BL/6 mouse at 2 mg/kg, iv; format: ADME, organism-based; conditions: in vivo
[22] = Clearance in female C57BL/6 mouse at 2 mg/kg, iv; format: ADME, organism-based; conditions: in vivo
[23] = Volume of distribution at steady state in female C57BL/6 mouse at 2 mg/kg, iv; format: ADME, organism-based; conditions: in vivo, read-out: Vdss
[24] = Cmax in female C57BL/6 mouse at 20 mg/kg, po; format: ADME, organism-based; conditions: in vivo
[25] = Tmax in female C57BL/6 mouse at 20 mg/kg, po; format: ADME, organism-based; conditions: in vivo
[26] = AUC (0 to infinity) in female C57BL/6 mouse at 20 mg/kg, po; format: ADME, organism-based; conditions: in vivo
[27] = Oral bioavailability in female C57BL/6 mouse at 20 mg/kg; format: ADME, organism-based; conditions: in vivo
[28] = AUC (0 to infinity) in female C57BL/6 mouse at 2 mg/kg, iv; format: ADME, organism-based; conditions: in vivo
[29] = Stability in human plasma assessed as compound remaining at 2 uM measured after 2 hrs by LC-MS/MS analysis; format: ADME, cell-free; conditions: read-out: Stability
[30] = Stability in mouse plasma assessed as compound remaining at 2 uM measured after 2 hrs by LC-MS/MS analysis; format: ADME, cell-free; conditions: read-out: Stability
[31] = as §2; format: toxicity, cell-based, Vero C1008; conditions: chlorocebus sabaeus, Vero E6 cells, read-out: Activity
Vero C1008 [32] = assay: Cytotoxicity against African green monkey Vero E6 cells assessed as cell viability at 1 uM incubated for 48 hrs by MTT assay; format: toxicity, cell-based; conditions: chlorocebus sabaeus, vero c1008, 48 h
SARS-CoV-2 [33] = assay: as §1, with “virus inactivation at 1 uM” for “inhibition of viral replication”, “48” for “24”, “RT-qPCR analysis relative to control” for “cell-based ELISA”; format: functional, Severe acute respiratory syndrome coronavirus 2
SARS-CoV-2 [34] = assay: as §1, with “virus inactivation at 10 uM” for “inhibition of viral replication”, “48” for “24”, “RT-qPCR analysis relative to control” for “cell-based ELISA”; format: functional, Severe acute respiratory syndrome coronavirus 2; conditions: time 48.25 hrs
SARS-CoV-2 [35] = assay: Antiviral activity against SARS CoV-2 Wuhan infected in African green monkey Vero E6 cells assessed as decrease in spike protein expression at 0.7 uM incubated for 48 hrs by immunofluorescence based analysis; format: functional, organism-based; conditions: Severe acute respiratory syndrome coronavirus 2
SARS-CoV-2 [36] = assay: Antiviral activity against SARS CoV-2 Wuhan infected in African green monkey Vero E6 cells assessed as decrease in viral particles at 0.7 uM incubated for 48 hrs by confocal microscopy; format: functional, organism-based; conditions: Severe acute respiratory syndrome coronavirus 2
SARS-CoV-2 [37] = assay: Antiviral activity against SARS CoV-2 Wuhan infected in African green monkey Vero E6 cells assessed as decrease in green fluorescence at 0.7 uM incubated for 48 hrs by confocal microscopy; format: functional, organism-based; conditions: Severe acute respiratory syndrome coronavirus 2

T1 sequence (Q12809 whole entry): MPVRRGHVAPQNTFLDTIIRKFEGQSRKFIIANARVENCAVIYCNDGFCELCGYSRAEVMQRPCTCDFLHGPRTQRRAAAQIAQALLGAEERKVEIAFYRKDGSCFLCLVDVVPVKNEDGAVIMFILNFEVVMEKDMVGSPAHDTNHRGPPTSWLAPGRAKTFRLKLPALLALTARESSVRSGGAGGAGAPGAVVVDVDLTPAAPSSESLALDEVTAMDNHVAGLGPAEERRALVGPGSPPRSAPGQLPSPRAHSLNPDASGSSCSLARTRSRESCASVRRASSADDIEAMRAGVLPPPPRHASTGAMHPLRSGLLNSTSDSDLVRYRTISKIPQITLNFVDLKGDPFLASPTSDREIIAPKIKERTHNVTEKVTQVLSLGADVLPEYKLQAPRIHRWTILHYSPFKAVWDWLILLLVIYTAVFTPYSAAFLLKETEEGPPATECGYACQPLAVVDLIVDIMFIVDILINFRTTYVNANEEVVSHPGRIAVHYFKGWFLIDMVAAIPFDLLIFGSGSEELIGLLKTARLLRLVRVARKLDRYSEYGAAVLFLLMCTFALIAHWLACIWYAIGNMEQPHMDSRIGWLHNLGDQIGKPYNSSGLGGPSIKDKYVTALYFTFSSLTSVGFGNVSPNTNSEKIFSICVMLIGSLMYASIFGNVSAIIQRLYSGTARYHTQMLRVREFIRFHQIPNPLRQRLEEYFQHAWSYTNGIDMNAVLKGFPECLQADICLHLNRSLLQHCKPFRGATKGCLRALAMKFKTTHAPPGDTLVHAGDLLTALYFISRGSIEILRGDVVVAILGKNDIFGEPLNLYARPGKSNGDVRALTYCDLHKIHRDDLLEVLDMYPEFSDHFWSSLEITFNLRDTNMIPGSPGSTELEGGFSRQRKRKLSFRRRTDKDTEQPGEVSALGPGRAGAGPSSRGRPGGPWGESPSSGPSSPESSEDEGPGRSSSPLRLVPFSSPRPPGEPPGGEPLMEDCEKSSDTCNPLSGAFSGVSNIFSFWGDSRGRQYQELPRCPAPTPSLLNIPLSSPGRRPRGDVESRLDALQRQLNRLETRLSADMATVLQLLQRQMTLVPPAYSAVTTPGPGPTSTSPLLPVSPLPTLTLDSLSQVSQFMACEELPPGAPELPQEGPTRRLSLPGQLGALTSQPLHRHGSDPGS

SMILES | IC50 (SARS-CoV-2 [1]) [nM] | Activity (Vero C1008 [2]) | IC50 [3] [µM] | logD at 3 h [4] | half-life at 2 µM [5] [min] | half-life at 2 µM [6] [min] | remaining at 1 h, 2 µM [7] [%] | remaining at 1 h, 2 µM [8] [%] | half-life at 100 µM [9] [min] | half-life at 100 µM [10] [min] | remaining at 1 h, 100 µM [11] [%] | remaining at 1 h, 100 µM [12] [%] | microsomal CLint at 100 µM [13] [µL/min/mg] | microsomal CLint at 100 µM [14] [µL/min/mg] | Ratio IC50 (SARS-CoV-2 [15]) | Activity (SARS-CoV-2 [17]) [%] | further results
Cc1ccc(Cn2c(CSc3c(C)cc(C)cc3C)c(C(=O)NC3CCN(C(C)C)CC3)c3cc(O)c(Br)cc32)cc1 | 750 | Non-toxic | 10.6 | 3.95 | > 240 | > 240 | 57.6 | 74.8 | 89.8 | 120 | 59.4 | 80.1 | 15.5 | 9.64 | ~13 |  | 
CCOC(=O)c1c(CSc2ccccc2)n(C)c2cc(Br)c(O)c(CN(C)C)c12 [UMIFENOVIR] | 9000 | Non-toxic | 0.54 |  |  |  |  |  |  |  |  |  |  |  |  | <90 | IC50 [16]: 540 nM
CCOC(=O)c1c(CSc2c(C)cc(C)cc2C)n(Cc2ccc(C)cc2)c2cc(Br)c(O)cc12 | 1500 | Non-toxic | > 30 | 3.03 | > 120 | > 120 | 87.8 | 111 | 17.3 | 7.17 | 8.56 | 1.23 | 193 | 80.2 |  | >99 | 
Cc1ccc(Cn2c(CSc3c(C)cc(C)cc3C)c(C(=O)N3CCC(N4CCOCC4)CC3)c3cc(O)c(Br)cc32)cc1 | 670 | Non-toxic | 15.9 | 2.45 | 41.1 | 53.5 | 27.1 | 44 | 19.8 | 26.9 | 11.4 | 14.7 | 35 | 31.3 | ~13 |  | Activity (SARS-CoV-2 [18]): Active; Activity (SARS-CoV-2 [19]): Active; Activity Was Comparable To Remdesivir; Activity (SARS-CoV-2 [20]): Active; half-life [21]: 86.4 min; clearance [22]: 92.4 mL/min/kg; Vd [23]: 13.4 L/kg; Cmax [24]: 148 ng/mL; Tmax [25]: 2 h; AUC(0-inf) [26]: 1190 ng·h/mL; bioavailability [27]: 33.9%; AUC(0-inf) [28]: 352 ng·h/mL
CCOC(=O)c1c(CSc2ccc(C)cc2C)n(Cc2cccc3ccccc23)c2cc(Br)c(O)cc12 | 240 | Non-toxic | > 30 | 3.76 | > 240 | 180 |  |  | > 120 | > 120 | 96.7 | 75.5 | 20.2 | > 14.4 |  | <90 | remaining at 2 h, 2 µM [29]: 69.1%; remaining at 2 h, 2 µM [30]: 70.3%
CCOC(=O)c1c(CSc2ccc(C)cc2C)n(C)c2cc(Br)c(O)cc12 |  |  |  |  |  |  |  |  |  |  |  |  |  |  |  |  | inhibition (SARS-CoV-2 [1]): inactive; viability at 48 h, 5 µM [31]: 85%; Activity (Vero C1008 [32]): Non-toxic; Activity (SARS-CoV-2 [33]; time 48.25 hrs): >95%; Activity (SARS-CoV-2 [34]): >99.9%
Cc1ccc(Cn2c(CSc3c(C)cc(C)cc3C)c(C(=O)NC3CCN(Cc4ccccc4)CC3)c3cc(O)c(Br)cc32)cc1 | 1500 | Non-toxic |  |  |  |  |  |  |  |  |  |  |  |  | ~13 |  | 
CCOC(=O)c1c(CSc2ccc(F)cc2C)n(C)c2cc(Br)c(O)cc12 |  |  |  |  |  |  |  |  |  |  |  |  |  |  |  | 75 | inhibition (SARS-CoV-2 [1]): inactive; viability at 48 h, 5 µM [31]: 70%; Activity (SARS-CoV-2 [33]; Severe acute respiratory syndrome coronavirus 2, time 48.25 hrs): Not active; No Significant Effect Observed
CN(C)CCCCNC(=O)c1c(CSc2ccc(F)cc2)n(C)c2cc(Br)c(O)cc12 | 1800 | Non-toxic | 9.85 | 1.91 | < 120 | 60 | 70.6 | 41.6 | 31.2 | 26.9 | 28 | 21 | 22.2 | 25.8 |  |  | 
CCOC(=O)c1c(CSc2ccc(C)cc2C)n(Cc2ccc(C)cc2)c2cc(Br)c(O)c(CN(C)C)c12 | 1500 | Non-toxic | 6.03 | 3.98 | > 120 | > 120 |  |  | 2.71 | 5.08 | 0.31 | 0.314 | 512 | 273 |  | <99.9 | Activity (SARS-CoV-2 [33]; time 48.25 hrs): <99.9%; remaining at 2 h, 2 µM [29]: 115%; remaining at 2 h, 2 µM [30]: 88.4%
Cc1ccc(Cn2c(CSc3c(C)cc(C)cc3C)c(C(=O)Nc3cnn(C)c3)c3cc(O)c(Br)cc32)cc1 | 700 | Non-toxic | > 30 | 1.93 | 42 | 52.2 | 28.6 | 42.5 | 24.5 | 22.1 | 16.5 | 18 | 28.3 | 25.8 | ~13 |  | Activity (SARS-CoV-2 [35]): Active; Activity (SARS-CoV-2 [36]): Active; Activity Was Comparable To Remdesivir; Activity (SARS-CoV-2 [37]): Active
Cc1ccc(Cn2c(CSc3c(C)cc(C)cc3C)c(C(=O)NC(C)(C)C)c3cc(O)c(Br)cc32)cc1 | 560 | Non-toxic | > 30 | 3.54 | > 120 | > 120 | 116 | 96.9 | 9.7 | 5.73 | 1.1 | 0.73 | 242 | 143 | ~13 |  | 

From ChEMBL document CHEMBL6134895, “Strategic Design and Optimization of Umifenovir Analogues: Balancing Antiviral Efficacy and hERG Toxicity against SARS-CoV-2” (J Med Chem, 2025)
